# In patent US20240124432A1, “HERBICIDAL COMPOUNDS” (SYNGENTA CROP PROTECTION AG, priority 2020, published 2024):
# What was measured:
# Type in all cases: in vivo
# [1] = test system: IPOHE; assay: Pre-emergence biological efficacy; settings: Ipomoea hederacea, 312 h, evaluated after 13 days, read-out: damage to plant (100=total damage to plant; 0=no damage to plant)
# Outline: (§1)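 Pots sown and kept one day in glasshouse (24/19° C., 16 h light), then sprayed with compound formulated in IF50 (50 g/l) diluted in 0.2% Genapol XO80 to final dose. Grown at 24/18° C., 15 h light, 50% humidity; damage scored after 13 days, 0 none to 100 total.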
# [2] = test system: AMAPA; assay: Pre-emergence biological efficacy; settings: Amaranthus palmeri, 312 h, evaluated after 13 days, read-out: damage to plant (100=total damage to plant; 0=no damage to plant)
# Outline: as §1
# [3] = test system: ECHCG; assay: Pre-emergence biological efficacy; settings: Echinochloa crus-galli, 312 h, evaluated after 13 days, read-out: damage to plant (100=total damage to plant; 0=no damage to plant)
# Outline: as §1
# [4] = test system: EPHHL; assay: Pre-emergence biological efficacy; settings: Euphorbia heterophylla, 312 h, evaluated after 13 days, read-out: damage to plant (100=total damage to plant; 0=no damage to plant)
# Outline: as §1
# [5] = test system: SETFA; assay: Pre-emergence biological efficacy; settings: Setaria faberi, 312 h, evaluated after 13 days, read-out: damage to plant (100=total damage to plant; 0=no damage to plant)
# Outline: as §1
# [6] = test system: LOLPE; assay: Pre-emergence biological efficacy; settings: Lolium perenne, 312 h, evaluated after 13 days, read-out: damage to plant (100=total damage to plant; 0=no damage to plant)
# Outline: as §1
# [7] = test system: IPOHE; assay: Post-emergence biological efficacy; settings: Ipomoea hederacea, 312 h, evaluated after 13 days, read-out: damage to plant (100=total damage to plant; 0=no damage to plant)
# Outline: (§2)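 Plants grown 14 days in glasshouse, then sprayed post-emergence with compound formulated in IF50 and diluted in 0.2% Genapol XO80 to the desired dose. Damage scored after 13 days on a 0–100 scale (100 = total damage).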
# [8] = test system: AMAPA; assay: Post-emergence biological efficacy; settings: Amaranthus palmeri, 312 h, evaluated after 13 days, read-out: damage to plant (100=total damage to plant; 0=no damage to plant)
# Outline: as §2
# [9] = test system: DIGSA; assay: Post-emergence biological efficacy; settings: Digitaria sanguinalis, 312 h, evaluated after 13 days, read-out: damage to plant (100=total damage to plant; 0=no damage to plant)
# Outline: as §2
# [10] = test system: ECHCG; assay: Post-emergence biological efficacy; settings: Echinochloa crus-galli, 312 h, evaluated after 13 days, read-out: damage to plant (100=total damage to plant; 0=no damage to plant)
# Outline: as §2
# [11] = test system: EPHHL; assay: Post-emergence biological efficacy; settings: Euphorbia heterophylla, 312 h, evaluated after 13 days, read-out: damage to plant (100=total damage to plant; 0=no damage to plant)
# Outline: as §2
# [12] = test system: CHEAL; assay: Post-emergence biological efficacy; settings: Chenopodium album, 312 h, evaluated after 13 days, read-out: damage to plant (100=total damage to plant; 0=no damage to plant)
# Outline: as §2
# [13] = test system: SETFA; assay: Post-emergence biological efficacy; settings: Setaria faberi, 312 h, evaluated after 13 days, read-out: damage to plant (100=total damage to plant; 0=no damage to plant)
# Outline: as §2
# [14] = test system: LOLPE; assay: Post-emergence biological efficacy; settings: Lolium perenne, 312 h, evaluated after 13 days, read-out: damage to plant (100=total damage to plant; 0=no damage to plant)
# Outline: as §2
# [15] = test system: ELEIN; assay: Post-emergence biological efficacy; settings: 312 h, evaluated after 13 days, read-out: damage to plant (100=total damage to plant; 0=no damage to plant)
# Outline: as §2
SMILES,pest or weed control at 250 g/ha [1] [%],pest or weed control at 250 g/ha [2] [%],pest or weed control at 250 g/ha [3] [%],pest or weed control at 250 g/ha [4] [%],pest or weed control at 250 g/ha [5] [%],pest or weed control at 250 g/ha [6] [%],pest or weed control at 250 g/ha [7] [%],pest or weed control at 250 g/ha [8] [%],pest or weed control at 250 g/ha [9] [%],pest or weed control at 250 g/ha [10] [%],pest or weed control at 250 g/ha [11] [%],pest or weed control at 250 g/ha [12] [%],pest or weed control at 250 g/ha [13] [%],pest or weed control at 250 g/ha [14] [%],pest or weed control at 250 g/ha [15] [%]
"CCOC(=O)C1(C)CC(c2cc(-c3ccc(Cl)nn3)c(F)cc2Cl)=NO1 (stereo not drawn) [Compound 1-679, Ethyl 3-[2-chloro-5-(6-chloropyridazin-3-yl)-4-fluoro-phenyl]-5-methyl-4H-isoxazole-5-carboxylate]",0,0,0,0,0,0,40,60,50,50,50,60,50,10,60
"CCOC(=O)C1(C)CC(c2cc(-c3cncc(C(F)(F)F)n3)c(F)cc2Cl)=NO1 (stereo not drawn) [Compound 1-727, Ethyl 3-[2-chloro-4-fluoro-5-[6-(trifluoromethyl)pyrazin-2-yl]phenyl]-5-methyl-4H-isoxazole-5-carboxylate]",20,0,30,10,10,0,100,70,70,90,70,70,90,20,80
"CCOC(=O)C1(C)CC(c2cc(-c3cnc(C)cn3)c(F)cc2Cl)=NO1 (stereo not drawn) [Compound 1-739, Ethyl 3-[2-chloro-4-fluoro-5-(5-methylpyrazin-2-yl)phenyl]-5-methyl-4H-isoxazole-5-carboxylate]",0,0,0,0,0,0,50,50,30,30,40,50,30,0,50
"CCOC(=O)C1(C)CC(c2cc(-c3cnc4ccc(C(F)(F)F)cc4n3)c(F)cc2Cl)=NO1 (stereo not drawn) [Compound 1-763, Ethyl 3-[2-chloro-4-fluoro-5-[7-(trifluoromethyl)quinoxalin-2-yl]phenyl]-5-methyl-4H-isoxazole-5-carboxylate]",0,0,0,0,0,0,10,20,0,0,20,20,0,0,0
"CCOC(=O)C1(C)CC(c2cc(-c3nccnc3C)c(F)cc2Cl)=NO1 (stereo not drawn) [Compound 1-775, Ethyl 3-[2-chloro-4-fluoro-5-(3-methylpyrazin-2-yl)phenyl]-5-methyl-4H-isoxazole-5-carboxylate]",0,0,0,0,0,0,30,60,20,20,40,60,50,0,50
